Where two headings read alike, the source gives them in different places.
Molecular target: WDR5 (Homo sapiens (Human), UniProt P61964)
Test: Surface Plasmon Resonance (SPR) assay, KD and residence time
Type: binding
Settings: read-out: WDR5 binding affinity (KD)
[1] = surface plasmon resonance (SPR)
[2] = surface plasmon resonance (SPR) assay

Row | SMILES | Kd [2] | further results
1 | CC(C)OC(=O)N1CC=C(c2cc(NC(=O)c3c[nH]c(=O)cc3C(F)F)c(N3CCN(C)C(C)C3)cc2F)CC1 (stereo in doubt) [Example 724, propan-2-yl 4-[5-[[4-(difluoromethyl)-6-oxo-1H-pyridine-3-carbonyl]amino]-2-fluoro-4-[(3R)-3,4-dimethylpiperazin-1-yl]phenyl]-3,6-dihydro-2H-pyridine-1-carboxylate] | – | Kd [1]: 2.82 nM
2 | CC(C)OC(=O)N1CCC=C(c2cc(NC(=O)c3c[nH]c(=O)cc3C(F)F)c(N3CCN(C)C(C)C3)cc2F)C1 (stereo in doubt) [Example 726, propan-2-yl 5-[5-[[4-(difluoromethyl)-6-oxo-1H-pyridine-3-carbonyl]amino]-2-fluoro-4-[(3R)-3,4-dimethylpiperazin-1-yl]phenyl]-3,6-dihydro-2H-pyridine-1-carboxylate] | – | Kd [1]: 2.1 nM
3 | CC(C)OC(=O)N1CC=C(c2cc(NC(=O)c3ccc(F)cc3C(F)(F)F)c(N3CCN(C)C(C)C3)cc2F)CC1 (stereo in doubt) [Example 727, propan-2-yl 4-[2-fluoro-5-[[4-fluoro-2-(trifluoromethyl)benzoyl]amino]-4-[(3R)-3,4-dimethylpiperazin-1-yl]phenyl]-3,6-dihydro-2H-pyridine-1-carboxylate] | – | Kd [1]: 2.46 nM
4 | CC(C)OC(=O)N1CCC=C(c2cc(NC(=O)c3ccc(F)cc3C(F)(F)F)c(N3CCN(C)C(C)C3)cc2F)C1 (stereo in doubt) [Example 728, propan-2-yl 5-[2-fluoro-5-[[4-fluoro-2-(trifluoromethyl)benzoyl]amino]-4-[(3R)-3,4-dimethylpiperazin-1-yl]phenyl]-3,6-dihydro-2H-pyridine-1-carboxylate] | – | Kd [1]: 3.55 nM
5 | C[C@@H]1CN(c2cc(F)c(-c3cnc(N4CCOC[C@H]4C)nc3)cc2NC(=O)c2ccc(F)cc2C(F)(F)F)CCN1C (stereo in doubt) [Example 736, 4-fluoro-N-[4-fluoro-2-[(3R)-3,4-dimethylpiperazin-1-yl]-5-[2-[(3R)-3-methylmorpholin-4-yl]pyrimidin-5-yl]phenyl]-2-(trifluoromethyl)benzamide] | – | Kd [1]: 0.29 nM
6 | CC1CN(c2cc(F)c(-c3ccnc(N4C[C@@H](C)O[C@@H](C)C4)n3)cc2NC(=O)c2ccc(F)cc2C(F)(F)F)CCN1C (stereo in doubt) [Example 739, 4-fluoro-N-[4-fluoro-5-[2-[(2R,6S)-2,6-dimethylmorpholin-4-yl]pyrimidin-4-yl]-2-[(3R)-3,4-dimethylpiperazin-1-yl]phenyl]-2-(trifluoromethyl)benzamide] | – | Kd [1]: 3 nM
7 | CC1CN(c2cc(F)c(-c3cccc(N4CCNCC4)n3)cc2NC(=O)c2c[nH]c(=O)cc2C(F)(F)F)CCN1C (stereo in doubt) [Example 742, N-[4-fluoro-5-(6-piperazin-1-ylpyridin-2-yl)-2-[(3R)-3,4-dimethylpiperazin-1-yl]phenyl]-6-oxo-4-(trifluoromethyl)-1H-pyridine-3-carboxamide] | – | Kd [1]: 2.87 nM
8 | C[C@@H]1CN(c2cc(C(F)(F)F)c(-c3cnc(N4CCOCC4)nc3)cc2NC(=O)c2c[nH]c(=O)cc2C(F)(F)F)C[C@H](C)N1C [Example 59, N-[5-(2-morpholin-4-ylpyrimidin-5-yl)-2-[rac-(3R,5S)-3,4,5-trimethylpiperazin-1-yl]-4-(trifluoromethyl)phenyl]-6-oxo-4-(trifluoromethyl)-1H-pyridine-3-carboxamide] | > 200 nM | –
9 | COc1cc(=O)[nH]cc1C(=O)Nc1cc(-c2cnc(N3CCOCC3)nc2)c(F)cc1N1C[C@@H](C)N(C)[C@@H](C)C1 [Example 65, N-[4-fluoro-5-(2-morpholin-4-ylpyrimidin-5-yl)-2-[(3R,5S)-3,4,5-trimethylpiperazin-1-yl]phenyl]-4-methoxy-6-oxo-1H-pyridine-3-carboxamide] | 57.2 nM | –
10 | C[C@@H]1CN(c2cc(F)c(-c3ccnc(OCC4CC4)c3)cc2NC(=O)c2c[nH]c(=O)cc2C(F)(F)F)C[C@H](C)N1C [Example 66, N-[5-[2-(cyclopropylmethoxy)pyridin-4-yl]-4-fluoro-2-[(3R,5S)-3,4,5-trimethylpiperazin-1-yl]phenyl]-6-oxo-4-(trifluoromethyl)-1H-pyridine-3-carboxamide] | 1.16 nM | –
11 | C[C@@H]1CN(c2cc(F)c(-c3ccccc3CNC3CCCCC3)cc2NC(=O)c2c[nH]c(=O)cc2C(F)(F)F)C[C@H](C)N1C [Example 67, N-[5-[2-[(cyclohexylamino)methyl]phenyl]-4-fluoro-2-[(3R,5S)-3,4,5-trimethylpiperazin-1-yl]phenyl]-6-oxo-4-(trifluoromethyl)-1H-pyridine-3-carboxamide] | 4.82 nM | –
12 | C[C@@H]1CN(c2cc(F)c(-c3ccc4c(c3)OCCCO4)cc2NC(=O)c2c[nH]c(=O)cc2C(F)(F)F)C[C@H](C)N1C [Example 69, N-[5-(3,4-dihydro-2H-1,5-benzodioxepin-7-yl)-4-fluoro-2-[(3R,5S)-3,4,5-trimethylpiperazin-1-yl]phenyl]-6-oxo-4-(trifluoromethyl)-1H-pyridine-3-carboxamide] | 0.225 nM | –
13 | C[C@@H]1CN(c2cc(F)c(-c3ccc4c(c3)OCCO4)cc2NC(=O)c2c[nH]c(=O)cc2C(F)(F)F)C[C@H](C)N1C [Example 70, N-[5-(2,3-dihydro-1,4-benzodioxin-6-yl)-4-fluoro-2-[(3R,5S)-3,4,5-trimethylpiperazin-1-yl]phenyl]-6-oxo-4-(trifluoromethyl)-1H-pyridine-3-carboxamide] | 0.429 nM | –
14 | CC(=O)Nc1ncc(-c2cc(NC(=O)c3c[nH]c(=O)cc3C(F)(F)F)c(N3C[C@@H](C)N(C)[C@@H](C)C3)cc2F)cn1 [Example 72, N-[5-(2-acetamidopyrimidin-5-yl)-4-fluoro-2-[(3R,5S)-3,4,5-trimethylpiperazin-1-yl]phenyl]-6-oxo-4-(trifluoromethyl)-1H-pyridine-3-carboxamide] | 0.823 nM | –
15 | C[C@@H]1CN(c2cc(F)c(-c3cnc(N4CCOCC4)nc3)cc2NC(=O)c2ccccc2)C[C@H](C)N1C [Example 74, N-[4-fluoro-5-(2-morpholin-4-ylpyrimidin-5-yl)-2-[(3R,5S)-3,4,5-trimethylpiperazin-1-yl]phenyl]benzamide] | 253 nM | –
16 | COc1cc(C(=O)Nc2cc(-c3cnc(N4CCOCC4)nc3)c(F)cc2N2C[C@@H](C)N(C)[C@@H](C)C2)ccc1F [Example 75, 4-fluoro-N-[4-fluoro-5-(2-morpholin-4-ylpyrimidin-5-yl)-2-[(3R,5S)-3,4,5-trimethylpiperazin-1-yl]phenyl]-3-methoxybenzamide] | 40.9 nM | –
17 | C[C@@H]1CN(c2cc(F)c(-c3cnc(N4CCOCC4)nc3)cc2NC(=O)c2cc(Cl)cc(Cl)c2)C[C@H](C)N1C [Example 76, 3,5-dichloro-N-[4-fluoro-5-(2-morpholin-4-ylpyrimidin-5-yl)-2-[(3R,5S)-3,4,5-trimethylpiperazin-1-yl]phenyl]benzamide] | 2.07 nM | –
18 | C[C@@H]1CN(c2cc(F)c(-c3cnc(N4CCOCC4)nc3)cc2NC(=O)c2n[nH]c(=O)cc2C(F)(F)F)C[C@H](C)N1C [Example 77, N-[4-fluoro-5-(2-morpholin-4-ylpyrimidin-5-yl)-2-[(3R,5S)-3,4,5-trimethylpiperazin-1-yl]phenyl]-6-oxo-4-(trifluoromethyl)-1H-pyridazine-3-carboxamide] | 4.43 nM | –
19 | C[C@@H]1CN(c2cc(F)c(-c3ccnc(N4CCOCC4)c3)cc2NC(=O)c2c[nH]c(=O)cc2C(F)(F)F)C[C@H](C)N1C [Example 83, N-[4-fluoro-5-(2-morpholin-4-ylpyridin-4-yl)-2-[(3R,5S)-3,4,5-trimethylpiperazin-1-yl]phenyl]-6-oxo-4-(trifluoromethyl)-1H-pyridine-3-carboxamide] | 0.391 nM | –

More lines, main results first:

Row | Kd [2] | SMILES | further results
20 | 294 nM | CC(=O)Nc1cc(C(F)(F)F)c(C(=O)Nc2cc(-c3cnc(N4CCOCC4)nc3)c(F)cc2N2C[C@@H](C)N(C)[C@@H](C)C2)cn1 [Example 27, 6-acetamido-N-[4-fluoro-5-(2-morpholin-4-ylpyrimidin-5-yl)-2-[(3R,5S)-3,4,5-trimethylpiperazin-1-yl]phenyl]-4-(trifluoromethyl)pyridine-3-carboxamide] | Kd (SPR, Table 2): 294 nM
21 | 1.34 nM | C[C@@H]1CN(c2cc(F)c(-c3ccc(N4CCOCC4)c(Cl)c3)cc2NC(=O)c2c[nH]c(=O)cc2C(F)(F)F)C[C@H](C)N1C [Example 68, N-[5-(3-chloro-4-morpholin-4-ylphenyl)-4-fluoro-2-[(3R,5S)-3,4,5-trimethylpiperazin-1-yl]phenyl]-6-oxo-4-(trifluoromethyl)-1H-pyridine-3-carboxamide] | –
22 | 0.623 nM | C[C@@H]1CN(c2cc(F)c(-c3ccc4c(c3)OCCN4C)cc2NC(=O)c2c[nH]c(=O)cc2C(F)(F)F)C[C@H](C)N1C [Example 71, N-[4-fluoro-5-(4-methyl-2,3-dihydro-1,4-benzoxazin-7-yl)-2-[(3R,5S)-3,4,5-trimethylpiperazin-1-yl]phenyl]-6-oxo-4-(trifluoromethyl)-1H-pyridine-3-carboxamide] | –
23 | 3.63 nM | C[C@@H]1CN(c2cc(F)c(C3=CCN(c4ccccc4)CC3)cc2NC(=O)c2c[nH]c(=O)cc2C(F)(F)F)C[C@H](C)N1C [Example 73, N-[4-fluoro-5-(1-phenyl-3,6-dihydro-2H-pyridin-4-yl)-2-[(3R,5S)-3,4,5-trimethylpiperazin-1-yl]phenyl]-6-oxo-4-(trifluoromethyl)-1H-pyridine-3-carboxamide] | –
24 | 0.338 nM | COCCOc1ccc(-c2cc(NC(=O)c3c[nH]c(=O)cc3C(F)(F)F)c(N3C[C@@H](C)N(C)[C@@H](C)C3)cc2F)cn1 [Example 84, N-[4-fluoro-5-[6-(2-methoxyethoxy)pyridin-3-yl]-2-[(3R,5S)-3,4,5-trimethylpiperazin-1-yl]phenyl]-6-oxo-4-(trifluoromethyl)-1H-pyridine-3-carboxamide] | –
25 | 0.703 nM | C[C@@H]1CN(c2cc(F)c(-c3cccc(N4CCOCC4)c3)cc2NC(=O)c2c[nH]c(=O)cc2C(F)(F)F)C[C@H](C)N1C [Example 85, N-[4-fluoro-5-(3-morpholin-4-ylphenyl)-2-[(3R,5S)-3,4,5-trimethylpiperazin-1-yl]phenyl]-6-oxo-4-(trifluoromethyl)-1H-pyridine-3-carboxamide] | –

— patent US11319299B2, “Substituted carboxamides as inhibitors of WDR5 protein-protein binding” (PROPELLON THERAPEUTICS INC., priority 2016, dated 2022)
